# Values quoted from earlier work in patent US20020198176A1, “Treatment of psoriasis with matrix metalloproteinase inhibitors” (priority 2000, published 2002).
# Tested on: MMP
# Conditions: in vitro; read-out: IC50 (50% reduction of the MMP enzymatic activity in vitro)
compound,measurement,value
O=C(C[C@H](CSc1ccccc1)C(=O)O)c1ccc(-c2ccc(Cl)cc2)cc1 [BAY 12-9566],IC50,2.2 to 60 µM
